Several values for one entry are separate records, joined by “and”; a condition that tells them apart may be missing. Equal values may be shown once.
Columns and labels:
MFM-223 [1] = conditions: 72 h
How it was run: (§1)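 Viability of breast cancer cell lines was measured with CellTiter-Blue after 72 h of incubation on compound-loaded 384-well plates. Cells were seeded in 20 µl onto compound dissolved in 5 µl medium, and 2.5 µl reagent was added for 2 h at 37 °C before reading at 560/590 nm. EC50 was fitted from percent-inhibition dose-response data censored at the highest concentration, normalised per plate to vehicle and a positive kill control, with zero drug sensitivity score rows dropped.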

BT-474 = assay: normalised viability (% of control), CellTiter-Blue; higher = more viable cells (100 = DMSO, 0 = benzethonium chloride kill control); conditions: 1 nM; incubation time: 72 h
Procedure: (§2)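 DSRT, CellTiter-Blue viability, 72 h incubation. Signal is normalised to DMSO and benzethonium chloride controls. Value is the normalised response at dose 1.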

BT-549 [2] = assay: as above; conditions: 1 nM; incubation time: 72 h
Procedure: as §2

CAL-120 [3] = assay: as above; conditions: 1 nM; incubation time: 72 h
Procedure: as §2

CAL-148 = assay: as above; conditions: 1 nM; incubation time: 72 h
Procedure: as §2

CAL-51 = assay: as above; conditions: 1 nM; incubation time: 72 h
Procedure: as §2

CAL-85-1 [4] = assay: as above; conditions: 1 nM; incubation time: 72 h
Procedure: as §2

DU-4475 = assay: as above; conditions: 1 nM; incubation time: 72 h
Procedure: as §2

HCC1143 [5] = assay: as above; conditions: 1 nM; incubation time: 72 h
Procedure: as §2

HCC1599 [6] = assay: as above; conditions: 1 nM; incubation time: 72 h
Procedure: as §2

HCC1937 = assay: as above; conditions: 1 nM; incubation time: 72 h
Procedure: as §2

HDQ-P1 = assay: as above; conditions: 1 nM; incubation time: 72 h
Procedure: as §2

Hs578T = assay: as above; conditions: 1 nM; incubation time: 72 h
Procedure: as §2

MDA-MB-231 = assay: as above; conditions: 1 nM; incubation time: 72 h
Procedure: as §2

MDA-MB-436 [7] = assay: as above; conditions: 1 nM; incubation time: 72 h
Procedure: as §2

MDA-MB-453 = assay: as above; conditions: 1 nM; incubation time: 72 h
Procedure: as §2

MDA-MB-468 = assay: as above; conditions: 1 nM; incubation time: 72 h
Procedure: as §2

MFM-223 [8] = assay: as above; conditions: 1 nM; incubation time: 72 h
Procedure: as §2

SK-BR-3 = assay: as above; conditions: 1 nM; incubation time: 72 h
Procedure: as §2

CAL-85-1 [9] = assay: drug sensitivity score (DSS), CellTiter-Glo (DSS (AUC-based score)); higher = stronger drug effect (viability inhibition or cytotoxicity); extreme values may be limits of the assay; conditions: incubation time: 72 h
How it was run: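 Using 20 µl of cell suspension per well, breast cancer cell lines were seeded into 384-well plates pre-loaded with compound at 5 concentrations in 10-fold steps across a compound-specific 10,000-fold range. Incubation lasted 72 h, after which CellTox Green fluorescence at 485/520 nm and then CellTiter-Glo luminescence, following 10 min at room temperature, were recorded. Each plate was normalised to 0.1 % DMSO and a positive kill control before the drug sensitivity score was derived from the area under the fitted dose-response curve.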

BT-549 [10] = conditions: 72 h
How it was run: as §1

CAL-120 [11] = conditions: 72 h
How it was run: as §1

HCC1143 [12] = conditions: 72 h
How it was run: as §1

HCC1599 [13] = conditions: 72 h
How it was run: as §1

MDA-MB-436 [14] = conditions: 72 h
How it was run: as §1

| EC50, CellTiter-Blue viability (BT-549 [10]) [nM] | EC50, CellTiter-Blue viability (HCC1143 [12]) [nM] | EC50, CellTiter-Blue viability (HCC1599 [13]) [nM] | EC50, CellTiter-Blue viability (MDA-MB-436 [14]) [nM] | Structure (SMILES) | EC50, CellTiter-Blue viability (MFM-223 [1]) [nM] | normalised viability (BT-474) | normalised viability (BT-549 [2]) | normalised viability (CAL-120 [3]) | normalised viability (CAL-148) | normalised viability (CAL-51) | normalised viability (CAL-85-1 [4]) | normalised viability (DU-4475) | normalised viability (HCC1143 [5]) | normalised viability (HCC1599 [6]) | normalised viability (HCC1937) | normalised viability (HDQ-P1) | normalised viability (Hs578T) | normalised viability (MDA-MB-231) | normalised viability (MDA-MB-436 [7]) | normalised viability (MDA-MB-453) | normalised viability (MDA-MB-468) | normalised viability (MFM-223 [8]) | normalised viability (SK-BR-3) | drug sensitivity score (CAL-85-1 [9]) | EC50, CellTiter-Blue viability (CAL-120 [11]) [nM] |
| --- | --- | --- | --- | --- | --- | --- | --- | --- | --- | --- | --- | --- | --- | --- | --- | --- | --- | --- | --- | --- | --- | --- | --- | --- | --- |
| – | – | – | – | O=S(=O)(c1cccc2cnccc12)N1CCCNCC1 [Fasudil] | 1690 | 102% | 98.8% | 83.9% | 90.8% | 111% | 96% | 108% | 92.8% | 99.4% | 88.6% | 99.9% | 116% | 106% | 109% | 121% | 102% | 105% | 93.8% | 0 | – |
| 1540 | 882 | 709 | 2390 | CS(=O)(=O)N1CCN(Cc2cc3nc(-c4cccc5[nH]ncc45)nc(N4CCOCC4)c3s2)CC1 [GDC-0941] | 721 | 101% | 94.6% | 89.7% | 100% | 114% | 87.5% | 106% | 84.1% | 92.8% | 112% | 109% | 112% | 92.9% | 118% | 93% | 95.5% | 89.7% | 88.3% | – | 990 |
| – | – | – | – | Nc1cccc2c1CN(C1CCC(=O)NC1=O)C2=O (stereo not given) [Lenalidomide] | – | 93.9% and 73.5% | 108% and 115% | 76.8% and 81.8% | 92.4% and 102% | 104% and 105% | 79.2% and 80.7% | 99% and 102% | 85.5% and 80.6% | 92.1% and 98.5% | 90.1% and 78% | 86.6% and 103% | 97.1% and 106% | 85.2% and 82.6% | 97.6% and 82.2% | 87.5% and 104% | 99.6% and 98.9% | 89.4% and 94.1% | 94.7% and 87.4% | 0 | – |
| 8260 | – | – | 107 | Cc1ccc(Nc2nccc(N(C)c3ccc4c(C)n(C)nc4c3)n2)cc1S(N)(=O)=O [Pazopanib] | 34.6 | 93.2% | 110% | 78.5% | 89.3% | 103% | 93.6% | 98.9% | 87.1% | 103% | 77.9% | 72.8% | 94.8% | 97.7% | 95.8% | 106% | 106% | 90% | 105% | 0 | – |

Source: the supplement of paper PMC4862054
